# In patent US20260258000A1, “THYMIDYLATE SYNTHASE INHIBITORS AND USES THEREOF” (University of Florida Research Foundation, Incorporated, priority 2021, published 2026):
# “Also recorded” adds a separate entry of the source.
# Legend:
# MIA PaCa-2 cells = assay: Cell viability (MTS) assay, MIA PaCa-2; assay type: cell-based; details: Homo sapiens; MIA PaCa-2, 72-hour treatment, highest concentration 350 μM (FIG. 4E)
# Description: (§1) To prepare lysates, 0.5×10^6 PA NC-1 cells were seeded in 100 mm dishes in 10 ml DMEM High glucose and 24 hours later, 5-FU (Sigma) or 19-S were added at the specified concentrations. Cells were harvested after 72 hours and cell pellets were stored at −80° C. For GI50 determination, 3000 MIA PaCa-2 cells. […] After 72 hours, cell viability was assessed by reduction of MTS ((3-4,5-dimethylthiazol-2-yl)-5-(3-carboxymethoxyphenol)-2-(4-sulfophenyl)-2H-tetrazolium) using Cell Titer 96 R Aqueous One Solution Cell Proliferation Assay Kit (Promega), following manufacturer's recommendations. Chemiluminescent output (integration time 1000 ms) was measured on a SpectraMax M3® (Molecular devices). Data were normalized to max/minutes and plotted in GraphPad Prism for GI50 determination. Chemical synthesis details, including characterization of each compound, can be found in the supporting information document associated with this publication.
# [1] = molecular target: T1, human thymidylate synthase (hTS) (Homo sapiens, UniProt P04818); assay: Tritium based TS catalytic activity assay; assay type: biochemical; details: for TS activity (conversion of dUMP): drug 250 μM, 10 μg/mL bacterially expressed TS protein (FIG. 1B); for inhibition of TS catalytic activity, 19-S series library screen: 250 uM (FIG. 4A); for TS inhibition at decreasing drug concentrations: compared with Pem and MTX controls (FIG. 4C)
# T1 construct: 6xHis (N); made in house; host or cells: E. coli BL21 (DE3)
# T1 sequence (P04818 whole entry): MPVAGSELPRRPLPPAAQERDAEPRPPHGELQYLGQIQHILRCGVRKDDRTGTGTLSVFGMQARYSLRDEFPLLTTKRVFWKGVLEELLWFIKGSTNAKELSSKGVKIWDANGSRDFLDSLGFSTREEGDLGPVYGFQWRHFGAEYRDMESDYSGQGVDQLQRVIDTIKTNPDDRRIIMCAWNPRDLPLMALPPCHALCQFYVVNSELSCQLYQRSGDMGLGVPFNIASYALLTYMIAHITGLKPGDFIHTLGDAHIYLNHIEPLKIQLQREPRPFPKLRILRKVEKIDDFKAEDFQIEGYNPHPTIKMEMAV
# Description: The catalytic activity of TS was determined by measuring the release of [31] from [5-3H]dUMP (ViTrax, VT122) resulting from the conversion of dUMP to dTMP as previously described12,33. […] Reactions were performed in 50 mM KH2PO4 (Sigma Aldrich, P0662) at pH 7.2 using 2 μg of purified human TS. Reactions were performed in a final volume of 200 μL with 100 mM β-mercaptoethanol (Sigma Aldrich, M7522), 40 μM dUMP (Sigma Aldrich, D3876), 100 μM 5,10-mTHF, and the [5-3H]dUMP tracer (ViTrax, VT122) accounting for 0.06% of the final dUMP concentration in the reaction. […] Reactions were initiated by the addition of the dUMP substrate and 5,10-mTHF cofactor, then incubated at 37° C. for 30 minutes. […] Reactions were terminated by the addition of 100 μL of ice-cold 20% trichloroacetic acid (Sigma Aldrich, T6399), then excess [5-31-]dUMP was removed by the addition of 200 μL of an albumin-coated activated charcoal solution. The albumin-coated activated charcoal solution was prepared by mixing 10 g of acid-washed activated dextran coated charcoal (Sigma Aldrich, C6241) with 2.5 g of bovine albumin (Sigma Aldrich, A1933) in 100 mL of H2O. The suspension was incubated at room temperature for 30 minutes and then centrifuged for 30 minutes at 10,000×g. […] For all experiments, positive control reactions were performed with no drug representing 100% TS activity, and negative control reactions were performed with no TS enzyme or no 5,10-mTHF substrate representing 0% TS activity. All assays were performed in biological duplicate and technical duplicate. Results were analyzed using GraphPad Prism 8.
# human TS = molecular target: T2, human TS (Homo sapiens, UniProt P04818); assay: Competitive drug displacement assay (tritium TS assay); assay type: biochemical; details: TS pre-incubated with drug; for dUMP conversion with increasing dUMP concentration (drug displacement): dUMP up to 5×; for dUMP conversion with increasing 5,10-mTHF concentration (drug displacement): 5,10-mTHF up to 5×
# T2 construct: 6xHis (N); made in house; host or cells: E. coli BL21 (DE3)
# T2 sequence (P04818 whole entry): as above
# Description: For these experiments the TS protein was first incubated with each drug, the reaction was then initiated by addition of 5,10-mTHF and dUMP using different concentrations of either 5,10-mTHF or dUMP to change the substrate:drug ratio. If there was competition between one of the substrates and the drug for the same binding site, increasing the substrate concentration will displace more of the pre-bound drug and shift the equilibrium towards the enzyme: substrate complex, thus allowing the conversion of dUMP to proceed (FIG. 5A).
# The competitive drug displacement assay utilized the standard reaction conditions for the tritium based TS catalytic activity assay including 40 μM dUMP (Sigma Aldrich, D3876) with the [5-3H]dUMP tracer (ViTrax, VT122) accounting for 0.06% of the final dUMP concentration and 100 μM 5,10-methylene tetrahydrofolate (defined as 1× dUMP and 1×5,10-mTHF). Concentrations of total dUMP and 5,10-mTHF were then changed relative to these 1× concentrations to concisely indicate the changes in either the substrate or cofactor concentration. […] The remaining components in each 200 μL reaction were consistent in all reactions and included 2 μg of purified human TS in 50 mM KH2PO4 (Sigma Aldrich, P0662) and 100 mM β-mercaptoethanol (Sigma Aldrich, M7522).
# DHFR = molecular target: T3, DHFR (Homo sapiens, UniProt P00374); assay: Absorbance-based DHFR activity assay; assay type: biochemical; details: for DHFR inhibition at reduced inhibitor concentrations: compared with Pem and MTX controls (FIG. 4D)
# T3 construct: purchased Sigma D6566
# T3 sequence (P00374 1-187): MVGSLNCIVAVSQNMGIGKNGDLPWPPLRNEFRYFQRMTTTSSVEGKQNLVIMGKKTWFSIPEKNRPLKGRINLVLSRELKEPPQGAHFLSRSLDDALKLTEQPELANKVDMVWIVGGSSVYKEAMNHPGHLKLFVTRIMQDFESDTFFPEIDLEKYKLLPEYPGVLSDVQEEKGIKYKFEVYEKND
# Description: 6 μL NADPH solution and 5 μL of dihydrofolic acid (DHFR substrate) (Sigma, D7006).
# [2] = tested on: Luc-PANC-1 xenograft tumors; assay: Luc-PANC-1 subcutaneous xenograft tumor model; assay type: in vivo, NSG mice; details: 25 mg/kg oral gavage
# Description: Luc-PANC-1 (5×106) and Luc-CM (0.5×106) cells were resuspended in 200 ul of PBS and injected subcutaneously (SQ) or intraperitonially (IP) to 6-8-week-old NSG mice respectively. Tumor bearing mice were imaged using Xenogen IVIS® Lumina Bioluminescence Imaging System (Perkin Elmer) every week after cell injection. At 4 weeks, animals were randomized based on slope of luciferase signal and treatment was initiated. […] For all animals body weight was recorded weekly and Luc-PANC-1 tumor volume was measured weekly with a caliper. For scheduled sacrifice experiments, animals were euthanized after 4 weeks of treatment. […] Harvested tumors were excised and weighted, and fixed in alcoholic formalin (67.5% Ethanol, 10% Formaldehyde 37%, 22.5% water) for pathology analysis. Tumor volume was calculated as [volume=0.52 (length×width2)].
# From this stock, the exact volume needed for daily in vivo delivery was then formulated into 95% corn oil (Mazola) at 2 different concentrations: 1.25 mg/mi (formulation 1) and 3.125 mg/ml (formulation 2). To determine the volume of solution administered to the mice, 200 μl (maximum volume to be delivered in mice via IP or oral gavage) was divided by 25 g of mouse body weight. Therefore, 8 μl of formulation 1 or 2 multiplied by the weight of the mice were used to reach a dose of 10 or 25 mg/kg of body weight, respectively.
# Prior to bioluminescence imaging the region where tumors were located was shaved. Mice were then anesthetized with 2.5% isoflurane in 02 then administered the D-luciferin substrate (150 mg/kg in PBS) by IP injection. Following the injection of the D-luciferin substrate mice were imaged using the Xenogen IVIS® Lumina Bioluminescence Imaging System (Perkin Elmer). The peak of luciferase photon flux was recorded 6 minutes after injection of the D-luciferin substrate. The total photon flux was analyzed and restricted to tumor ROI (region of interest) using Living Image v2.60.1 software (Imaging Systems).
# [3] = Maximum tolerated dose (MTD) study; assay type: in vivo
# Text: After 3 treatment cycles, animals rested (no treatment) for one more week before euthanasia. Body weight and physical status of all mice were closely monitored. Tissues were collected and fixed in alcoholic formalin to test for toxicity.
# [4] = tested on: TS protein expression in PANC-1 cells; assay: Immunoblot analysis of TS expression in PANC-1 cells; assay type: cell-based; details: PANC-1 cells treated 72 hours (FIG. 1D)
# Description: as §1, with “Data were normalized to max/minutes and plotted in GraphPad Prism for GI50 determination. Chemical synthesis details, including characterization of each compound, can be found in the supporting information document associated with this publication.” left out
# Protein lysates were generated using RIPA buffer (Santa Cruz) for 20 minutes on ice, followed by 15 minutes centrifugation at 13,000 rpm, at 4° C. […] Protein was quantified using Bradford Assay (BioRad) following manufacturer's recommendations, standard curves were generated with bovine serum albumin (Fisher).
# 20 μg of total protein lysate was loaded per lane of 10% Tris Glycine Gel (Invitrogen). […] Signal was detected using West Pico Plus chemiluminescent substrate (Thermo Scientific) following manufacturer's recommendations. […] For protein level quantification relative to loading control, densitometric analysis was performed by ImageJ software.
# BON cells = assay: Cell viability (MTS) assay, BON; assay type: cell-based; details: 72 hour drug incubation (FIG. 1C)
# CM cells = assay: Cell viability (MTS) assay, CM; assay type: cell-based; details: 72 hour drug incubation (FIG. 1C)
structure (smiles),measurement,setting,value
"CN(Cc1cnc2nc(N)nc(N)c2n1)c1ccc(C(=O)N[C@@H](CCC(=O)O)C(=O)O)cc1 [MTX, methotrexate, reference compound]",GI50,MIA PaCa-2 cells,> 350000 nM
"O=c1[nH]c(=O)n([C@H]2C[C@H](O)[C@@H](CO)O2)cc1F [FdUrd, 5-fluoro-2′-deoxyuridine, reference compound]",TS activity (conversion of dUMP),[1],reduced conversion of dUMP
same,dUMP conversion with increasing dUMP concentration (drug displacement),human TS,did not show drug displacement
CCc1nc(N)nc(N)c1-c1ccc(N(C)Cc2ccc(OC)cc2)c([N+](=O)[O-])c1 [Compound 19-S5],DHFR inhibition at reduced inhibitor concentrations,DHFR,both strong TS and DHFR inhibition
same,"inhibition of TS catalytic activity, 19-S series library screen",[1],inhibited TS activity
same,TS inhibition at decreasing drug concentrations,[1]; listed as 19-55,greater TS inhibition than both MTX and Pen
same,TS inhibition at decreasing drug concentrations,[1]; listed as 19-85,both strong TS and DHFR inhibition
same,"dUMP conversion with increasing 5,10-mTHF concentration (drug displacement)",human TS,increased the amount of dUMP conversion
same,dUMP conversion with increasing dUMP concentration (drug displacement),human TS,the amount of dUMP conversion did not increase
same,GI50,MIA PaCa-2 cells,200 to 840 nM
CCc1nc(N)nc(N)c1-c1ccc(N(C)Cc2ccc3c(c2)OCO3)c([N+](=O)[O-])c1 [Compound 19-S7],DHFR inhibition at reduced inhibitor concentrations,DHFR,both strong TS and DHFR inhibition
same,"inhibition of TS catalytic activity, 19-S series library screen",[1],inhibited TS activity
same,TS inhibition at decreasing drug concentrations,[1],greater TS inhibition than both MTX and Pen; also recorded: both strong TS and DHFR inhibition
same,adverse effects / body weight,[2]; 4 cycles,did not show adverse effects or declines in body weight
same,"tumor progression (photon flux, tumor volume, excised tumor mass)",[2]; 4 cycles (FIGS. 7A-7H),inhibited tumor progression
same,mortality,"[3]; 50 mg/kg PO, n=3 (FIG. 16B)",found dead after 12th (n=1) and 15th (n=2) dose
same,MTD,"[3]; PO, NSG mice (FIGS. 16A-16B)",25 mg/kg
same,"dUMP conversion with increasing 5,10-mTHF concentration (drug displacement)",human TS,increased the amount of dUMP conversion
same,dUMP conversion with increasing dUMP concentration (drug displacement),human TS,the amount of dUMP conversion did not increase
same,GI50,MIA PaCa-2 cells,200 to 840 nM
"O=c1[nH]cc(F)c(=O)[nH]1 [Compound 5-FU, 5-fluorouracil, reference compound]",TS protein expression (steady-state TS levels),[4],induced TS expression
same,IC50,BON cells,7.1 µM
same,GI50,CM cells,14.8 µM
"Nc1nc2[nH]cc(CCc3ccc(C(=O)N[C@@H](CCC(=O)O)C(=O)O)cc3)c2c(=O)[nH]1 [Pem, pemetrexed, reference compound]",DHFR inhibition at reduced inhibitor concentrations,DHFR,less effective against DHFR
same,TS inhibition at decreasing drug concentrations,[1],greater TS inhibition than the MTX antifolate
same,"dUMP conversion with increasing 5,10-mTHF concentration (drug displacement)",human TS,increased the dUMP conversion
same,dUMP conversion with increasing dUMP concentration (drug displacement),human TS,did not increase dUMP conversion
same,GI50,MIA PaCa-2 cells,> 350000 nM
"O=c1[nH]c(=O)n([C@@H]2O[C@H](CO)[C@@H](O)[C@H]2O)cc1F [FUrd, 5-fluorouridine, reference compound]",TS activity (conversion of dUMP),[1],inactive
CCc1nc(N)nc(N)c1-c1ccc(NCCOCCOCCN)c([N+](=O)[O-])c1 [Compound 19-S10],"inhibition of DHFR activity, 19-S series library screen",DHFR; 1 μM (FIG. 4B),exception
